# Laboratory results published in patent US20140303105A1, “Primycin and components thereof for use in the treatment or prevention of infections caused by specific pathogens” (PANNONPHARMA GYÓGYSZERGYÁRTÓ ZRT., priority 2011, published 2014).
# Assays:
# Assay in all cases: Standard microdilution susceptibility test, clinical isolates
# Assay type in all cases: cell-based
# [1] = system: Enterococcus sp., vancomycin susceptible; conditions: 20 clinical isolates; for MIC50 / MIC90: Enterococcus; for MIC50: read-out: MIC 50%; for MIC90: read-out: MIC 90%
# [2] = system: Streptococcus viridans sp.; conditions: 20 clinical isolates; for MIC50 / MIC90: Streptococcus viridans; for MIC50: read-out: MIC 50%; for MIC90: read-out: MIC 90%
# [3] = system: Staphylococcus aureus, methicillin resistant; conditions: 10 clinical isolates; for MIC50 / MIC90: Staphylococcus aureus; for MIC50: read-out: MIC 50%; for MIC90: read-out: MIC 90%
# [4] = system: Streptococcus pneumoniae, penicillin susceptible; conditions: for MIC Range / Ratio of Sensitive/Total / MIC50 / MIC90: 10 clinical isolates; for MIC50 / MIC90: Streptococcus pneumoniae; for MIC50: read-out: MIC 50%; for MIC90: read-out: MIC 90%; for MIC: single isolate
# [5] = system: Staphylococcus aureus, methicillin susceptible; conditions: 10 clinical isolates; for MIC50 / MIC90: Staphylococcus aureus; for MIC50: read-out: MIC 50%; for MIC90: read-out: MIC 90%
# [6] = system: Coagulase-negative Staphylococus sp., methicillin resistant; conditions: 10 clinical isolates; for MIC50: read-out: MIC 50%; for MIC90: read-out: MIC 90%
# [7] = system: Enterococcus sp., decreased vancomycin susceptibility; conditions: 5 clinical isolates
# [8] = system: Streptococcus pneumoniae, penicillin resistant; conditions: for MIC50 / MIC90: Streptococcus pneumoniae; for MIC50: read-out: MIC 50%; for MIC90: read-out: MIC 90%
# [9] = system: Coagulase-negative Staphylococus sp., methicillin susceptible; conditions: 10 clinical isolates; for MIC50: read-out: MIC 50%; for MIC90: read-out: MIC 90%
MIC50 [1] [µg/mL],MIC90 [1] [µg/mL],MIC50 [2] [µg/mL],MIC90 [2] [µg/mL],MIC50 [3] [µg/mL],MIC90 [3] [µg/mL],MIC Range [4] [µg/mL],MIC50 [4] [µg/mL],MIC90 [4] [µg/mL],MIC Range [5] [µg/mL],MIC50 [5] [µg/mL],MIC90 [5] [µg/mL],MIC50 [6] [µg/mL],MIC90 [6] [µg/mL],Molecule,Ratio of Sensitive/Total [1],Ratio of Sensitive/Total [2],Ratio of Sensitive/Total [3],Ratio of Sensitive/Total [4],Ratio of Sensitive/Total [5],Ratio of Sensitive/Total [6],also measured
4,> 16,2,4,16,> 16,1 to 4,2,2,0.5 to 1,0.5,1,> 16,> 16,CC1COc2c(N3CCN(C)CC3)c(F)cc3c(=O)c(C(=O)O)cn1c23 (centres unmarked) [Ofloxacin],3/20,14/20,1/10,9/10,10/10,0/10,MIC Range [2]: 1 to 8 µg/mL; MIC Range [7]: 2 to 8 µg/mL; Ratio of Sensitive/Total [7]: 2/5; MIC Range ([8]; 10 clinical isolates): 1 to 2 µg/mL; Ratio of Sensitive/Total ([8]; 10 clinical isolates): 10/10; MIC50 ([8]; 10 clinical isolates): 1 µg/mL; MIC90 ([8]; 10 clinical isolates): 2 µg/mL; MIC Range [9]: 0.25 to 1 µg/mL; Ratio of Sensitive/Total [9]: 10/10; MIC50 [9]: 1 µg/mL; MIC90 [9]: 1 µg/mL
16,32,4,> 32,0.25,0.25,1 to 8,1,8,0.25 to 32,0.25,32,1,> 32,CN(C)[C@@H]1C(O)=C(C(N)=O)C(=O)[C@@]2(O)C(O)=C3C(=O)c4c(O)cccc4[C@@](C)(O)[C@H]3[C@H](O)[C@@H]12 [Oxytetracycline],6/20,10/20,10/10,8/10,8/10,8/10,MIC Range [3]: 0.125 to 0.25 µg/mL; MIC Range [7]: 0.25 to 16 µg/mL; Ratio of Sensitive/Total [7]: 2/5; Ratio of Sensitive/Total ([8]; 10 clinical isolates): 1/10; MIC50 ([8]; 10 clinical isolates): 32 µg/mL; MIC90 ([8]; 10 clinical isolates): > 32 µg/mL; Ratio of Sensitive/Total [9]: 9/10; MIC50 [9]: 0.25 µg/mL; MIC90 [9]: 1 µg/mL
16,> 32,16,32,1,> 32,16 to 32,16,32,0.5 to 1,0.5,0.5,0.06,> 32,NC[C@H]1O[C@H](O[C@H]2[C@H](O)[C@@H](O[C@H]3O[C@H](CO)[C@@H](O)[C@H](N)[C@H]3O)[C@H](N)C[C@@H]2N)[C@H](N)C[C@@H]1O [Tobramycin],0/20,1/20,6/10,0/10,10/10,5/10,MIC Range [2]: 4 to 32 µg/mL; Ratio of Sensitive/Total [7]: 0/5; Ratio of Sensitive/Total ([8]; 10 clinical isolates): 0/10; MIC50 ([8]; 10 clinical isolates): 32 µg/mL; MIC90 ([8]; 10 clinical isolates): > 32 µg/mL; MIC Range [9]: 0.06 to 4 µg/mL; Ratio of Sensitive/Total [9]: 10/10; MIC50 [9]: 0.06 µg/mL; MIC90 [9]: 4 µg/mL
–,–,–,–,–,–,–,–,–,–,–,–,–,–,Penicillin,–,–,–,–,–,–,"MIC ([4]; serotype 3): 0.015 µg/mL; MIC ([4]; serotype 4): 0.015 µg/mL; MIC ([4]; serotype 7F): 0.015 µg/mL; MIC ([4]; serotype 8): 0.015 µg/mL; MIC ([4]; serotype 9(V)): 0.03 µg/mL; MIC ([4]; serotype 11(A)): 0.06 µg/mL; MIC ([4]; serotype 19F): 0.03 µg/mL; MIC ([4]; serotype 23(F)): 0.015 µg/mL; MIC ([8]; single isolate, serotype 23(F)): 2 µg/mL"
